Values of other authors in patent US20250295727A1, “STABLE, READY-TO-ADMINISTER AQUEOUS FORMULATIONS OF DALBAVANCIN” (HIKMA PHARMACEUTICALS USA INC., priority 2022, published 2025).

Conditions: lyophilized
[1] = storage at 25° C. for 12 months

decrease of B0 [1]: 8.5% | increase of MAG [1]: 10.2% | decrease in dalbavancin's primary factor B0 (storage for 36 months at 5° C.): 3.6% | increase in MAG (storage for 36 months at 5° C.): 2.9%
Substance: dalbavancin [unformulated lyophilized dalbavancin]
